From US20050171192A1, “Use of histamine to treat bone disease” (priority 2003, published 2005)
Like-named read-outs stand apart in the source and are kept apart here.

Key:
[1] = molecular target: membrane bound oxidase of stimulated phagocytes (Homo sapiens, UniProt P04839); conditions: substrate of the membrane bound oxidase; generally accepted (background); cited from earlier work
[2] = Example 7: bone loss associated with cancer treatments (hormone therapy); format: in vivo; conditions: oral 100 mg in conjunction with hormone therapy; compared to placebo group
Description: Individuals suffering from cancer and being treated with hormone therapy are identified. The individuals are divided into 11 groups of 10 each. In conjunction with hormone therapy, Groups 1 through 10 are orally administered 100 mg of histamine, histamine agonists, histamine salts, histamine prodrugs, NADPH-oxidase inhibitors, histamine dihydrochloride, histamine phosphate, serotonin, 5HT agonists, or histamine receptor agonists, respectively. Group 11 receives a placebo in conjunction with hormone therapy.

[3] = Example 1: inhibition of bone resorption in subjects with bone loss; format: in vivo; conditions: effective dose; Groups 1 through 10 compared to placebo Group 11
Description: Subjects suffering from bone loss exacerbated by osteoclast-produced ROS are identified. The subjects are separated into 11 groups of 10 subjects each. […] Subjects in Group 11 are administered a placebo.

[4] = intravenous 5 mg in conjunction with steroid therapy; compared to steroid therapy alone
Description: Individuals suffering from bone loss associated with steroid therapy, including treatment with corticosteroids, such as betamethasone, budesonide, cortisone dexamethasone, hydrocortisone, methylprednisolone, prednisolone, prednisone, and triamcinolone, are identified. In conjunction with steroid therapy, the individuals are intravenously administered 5 mg of a ROS scavenger or a placebo.

[5] = oral 75 mg in conjunction with antibiotics; versus antibiotics alone
Description: Individuals suffering from osteomyelitis are identified. The individuals are orally administered 75 mg of histamine phosphate in conjunction with antibiotics or antibiotics alone.

[6] = oral 125 mg; versus placebo
Description: Individuals suffering from bone loss associated with primary and secondary hyperparathyroidism are identified. The individuals are orally administered 125 mg of histamine or a placebo.

[7] = oral 50 mg, 100 mg, 200 mg, 1,000 mg; relative to placebo group
Description: Individual suffering from various types of osteoporosis, including type I and type II osteoporosis, age-related osteoporosis, disuse osteoporosis, diabetes-related osteoporosis, and steroid-related osteoporosis, are identified. The individuals are separated into 5 groups of 20 individuals. Individuals in Groups 1 through 4 are orally administered 50 mg, 100 mg, 200 mg, and 1,000 mg of histamine, respectively. Individuals in […] are administered a placebo. The rate of bone loss is reduced for Groups 1 through 4 relative to the rate of bone loss for the placebo group.

Row | SMILES | Km [1] [µM] | bone healing [2] | bone loss [2] | rate of bone healing [3] | rate of bone loss [3] | bone loss [4] | bone healing [5] | rate of bone loss [6] | trauma to bone cells [6] | rate of bone loss [7]
1 | NC(=O)C1=CN([C@@H]2O[C@H](COP(=O)(O)OP(=O)(O)OC[C@H]3O[C@@H](n4cnc5c(N)ncnc54)[C@H](O)[C@@H]3O)[C@@H](O)[C@H]2O)C=CC1 [NADH] | 450 | – | – | – | – | – | – | – | – | –
2 | NC(=O)C1=CN([C@@H]2O[C@H](COP(=O)(O)OP(=O)(O)OC[C@H]3O[C@@H](n4cnc5c(N)ncnc54)[C@H](OP(=O)(O)O)[C@@H]3O)[C@@H](O)[C@H]2O)C=CC1 [NADPH] | 45 | – | – | – | – | – | – | – | – | –
3 | Cl.Cl.NCCc1c[nH]cn1 [histamine dihydrochloride] | – | accelerated | inhibited | accelerated | reduced | reduced | – | – | – | –
4 | NCCc1c[nH]cn1.O=P(O)(O)O [histamine phosphate] | – | accelerated | inhibited | accelerated | reduced | – | accelereated | – | – | –
5 | NCCc1c[nH]cn1 [histamine] | – | accelerated | inhibited | accelerated | reduced | – | – | reduced | minimized | reduced
6 | NCCc1c[nH]c2ccc(O)cc12 [serotonin] | – | accelerated | inhibited | accelerated | reduced | – | – | – | – | –
